Legend:
Type in all cases: cell-based
[1] = tested on: MGC-803 human gastric cancer cell line; assay: MTT cytotoxicity assay, MGC-803; details: Homo sapiens, MGC-803, 48 h, mean ± SD from three independent experiments
Experimental: (§1) The in vitro antiproliferative activity of the DHAA derivatives 3a–o and 4a–o against four human cancer cell lines (MGC-803 human gastric cancer cell line, CNE-2 human nasopharyngeal carcinoma cell line, SK-OV-3 human ovarian carcinoma cell line, NCI-H460 human lung cancer cell line) and the human normal liver cell line LO2 were evaluated by MTT (methyl thiazolytetrazolium) assay and compared with the parent compound DHAA and the positive control cisplatin in each panel.
(§2) The cytotoxicity of the compounds was evaluated against NCI-H460, MGC-803, SK-OV-3, CNE-2 and LO2 using an MTT assay. Cells were grown on 96-well micro-plates at a density of 4 × 10^3 cells per well in DMEM (dulbecco’s modified eagle medium) medium with 10% FBS (fetal bovine serum). The plates were incubated at 37 °C with 5% CO2. The cells were then exposed to different concentrations of target compounds and cisplatin and incubated for another 48 h. Control wells were formed by culture media with the maximum concentration of DMSO used in each assay (1‰). The cells were stained with 20 µL of MTT in an incubator for about 4 h. The medium was thrown away and replaced by […] DMSO. The absorbance (OD) value was read at 490 nm on an enzyme labeling instrument. Each experiment was repeated at least three times to obtain the mean values.

[2] = tested on: CNE-2 human nasopharyngeal carcinoma cell line; assay: MTT cytotoxicity assay, CNE-2; details: Homo sapiens, CNE-2, 48 h, mean ± SD from three independent experiments
Experimental: as §1, §2

[3] = tested on: SK-OV-3 human ovarian carcinoma cell line; assay: MTT cytotoxicity assay, SK-OV-3; details: Homo sapiens, SK-OV-3, 48 h, mean ± SD from three independent experiments
Experimental: as §1, §2

[4] = tested on: NCI-H460 human lung cancer cell line; assay: MTT cytotoxicity assay, NCI-H460; details: Homo sapiens, NCI-H460, 48 h, mean ± SD from three independent experiments
Experimental: as §1, §2

[5] = tested on: human normal liver cell line LO2; assay: MTT cytotoxicity assay, normal LO2 cells; details: Homo sapiens, L02, 48 h, mean ± SD from three independent experiments
Experimental: as §1, §2

Structure (SMILES)	IC50 [1]	IC50 [2]	IC50 [3]	IC50 [4]	IC50 [5]
CC(C)c1ccc2c(c1)CCC1[C@](C)(C(=O)OCC(O)CNc3ccccc3)CCC[C@]21C (stereo partly drawn) [Compound 3a, (1R,4aS)-2-Hydroxy-3-(Phenylamino)Propyl-7-Isopropyl-1,4a-Dimethyl-1,2,3,4,4a,9,10,10a-Octahydrophenanthrene-1-Carboxylate]	7.1 ± 1.51 µM	27.87 ± 0.25 µM	15.1 ± 0.57 µM	18.6 ± 0.97 µM	> 100 µM
Cc1ccccc1NCC(O)COC(=O)[C@]1(C)CCC[C@]2(C)c3ccc(C(C)C)cc3CCC12 (stereo partly drawn) [Compound 3b, (1R,4aS)-2-Hydroxy-3-(2-Methylphenylamino)Propyl-7-Isopropyl-1,4a-Dimethyl-1,2,3,4,4a,9,10, 10a-Octahydrophenanthrene-1-Carboxylate]	22.6 ± 2.71 µM	> 100 µM	> 100 µM	> 100 µM	> 100 µM
Cc1cccc(NCC(O)COC(=O)[C@]2(C)CCC[C@]3(C)c4ccc(C(C)C)cc4CCC23)c1 (stereo partly drawn) [Compound 3c, (1R,4aS)-2-Hydroxy-3-(3-Methylphenylamino)Propyl-7-Isopropyl-1,4a-Dimethyl-1,2,3,4,4a,9,10, 10a-Octahydrophenanthrene-1-Carboxylate]	12.3 ± 4.87 µM	14.6 ± 0.19 µM	14.8 ± 4.03 µM	20.1 ± 2.95 µM	34.7 ± 0.45 µM
Cc1ccc(NCC(O)COC(=O)[C@]2(C)CCC[C@]3(C)c4ccc(C(C)C)cc4CCC23)cc1 (stereo partly drawn) [Compound 3d, (1R,4aS)-2-Hydroxy-3-(4-Methylphenylamino)Propyl-7-Isopropyl-1,4a-Dimethyl-1,2,3,4,4a,9,10, 10a-Octahydrophenanthrene-1-Carboxylate]	21.8 ± 2.66 µM	44.1 ± 2.89 µM	29.9 ± 0.8 µM	44.8 ± 5.26 µM	> 100 µM
COc1ccccc1NCC(O)COC(=O)[C@]1(C)CCC[C@]2(C)c3ccc(C(C)C)cc3CCC12 (stereo partly drawn) [Compound 3e, (1R,4aS)-2-Hydroxy-3-(2-Methoxyphenylamino)Propyl-7-Isopropyl-1,4a-Dimethyl-1,2,3,4,4a,9, 10,10a-Octahydrophenanthrene-1-Carboxylate]	28.5 ± 1.35 µM	27.4 ± 0.51 µM	19.5 ± 2.23 µM	26.1 ± 1.92 µM	32.3 ± 1.56 µM
COc1cccc(NCC(O)COC(=O)[C@]2(C)CCC[C@]3(C)c4ccc(C(C)C)cc4CCC23)c1 (stereo partly drawn) [Compound 3f, (1R,4aS)-2-Hydroxy-3-(3-Methoxyphenylamino)Propyl-7-Isopropyl-1,4a-Dimethyl-1,2,3,4,4a,9, 10,10a-Octahydrophenanthrene-1-Carboxylate]	18.4 ± 1.45 µM	17.4 ± 4.32 µM	18.01 ± 0.09 µM	21.9 ± 8.61 µM	> 100 µM
COc1ccc(NCC(O)COC(=O)[C@]2(C)CCC[C@]3(C)c4ccc(C(C)C)cc4CCC23)cc1 (stereo partly drawn) [Compound 3g, (1R,4aS)-2-Hydroxy-3-(4-Methoxyphenylamino)Propyl-7-Isopropyl-1,4a-Dimethyl-1,2,3,4,4a,9, 10,10a-Octahydrophenanthrene-1-Carboxylate]	51.7 ± 1.85 µM	> 100 µM	> 100 µM	> 100 µM	> 100 µM
CC(C)c1ccc2c(c1)CCC1[C@](C)(C(=O)OCC(O)CNc3ccccc3F)CCC[C@]21C (stereo partly drawn) [Compound 3h, (1R,4aS)-2-Hydroxy-3-(2-Fluorophenylamino)Propyl-7-Isopropyl-1,4a-Dimethyl-1,2,3,4,4a,9,10, 10a-Octahydrophenanthrene-1-Carboxylate]	17.5 ± 3.51 µM	45.7 ± 5.8 µM	> 100 µM	30.2 ± 3.4 µM	> 100 µM
CC(C)c1ccc2c(c1)CCC1[C@](C)(C(=O)OCC(O)CNc3cccc(F)c3)CCC[C@]21C (stereo partly drawn) [Compound 3i, (1R,4aS)-2-Hydroxy-3-(3-Fluorophenylamino)Propyl-7-Isopropyl-1,4a-Dimethyl-1,2,3,4,4a,9,10, 10a-Octahydrophenanthrene-1-Carboxylatev]	> 100 µM	> 100 µM	> 100 µM	> 100 µM	> 100 µM
CC(C)c1ccc2c(c1)CCC1[C@](C)(C(=O)OCC(O)CNc3ccc(F)cc3)CCC[C@]21C (stereo partly drawn) [Compound 3j, (1R,4aS)-2-Hydroxy-3-(4-Fluorophenylamino)Propyl-7-Isopropyl-1,4a-Dimethyl-1,2,3,4,4a,9,10, 10a-Octahydrophenanthrene-1-Carboxylate]	14.2 ± 1.7 µM	20.7 ± 2.31 µM	18.9 ± 1.66 µM	15.6 ± 1.45 µM	28.7 ± 0.55 µM
CC(C)c1ccc2c(c1)CCC1[C@](C)(C(=O)OCC(O)CNc3cccc(Cl)c3)CCC[C@]21C (stereo partly drawn) [Compound 3k, (1R,4aS)-2-Hydroxy-3-(3-Chlorophenylamino)Propyl-7-Isopropyl-1,4a-Dimethyl-1,2,3,4,4a,9,10, 10a-Octahydrophenanthrene-1-Carboxylate]	13.1 ± 2.66 µM	18.2 ± 4.06 µM	25.1 ± 4.8 µM	18.1 ± 2.33 µM	35.3 ± 0.57 µM
CC(C)c1ccc2c(c1)CCC1[C@](C)(C(=O)OCC(O)CNc3ccc(Cl)cc3)CCC[C@]21C (stereo partly drawn) [Compound 3l, (1R,4aS)-2-Hydroxy-3-(4-Chlorophenylamino)Propyl-7-Isopropyl-1,4a-Dimethyl-1,2,3,4,4a,9,10, 10a-Octahydrophenanthrene-1-Carboxylate]	34.48 ± 0.02 µM	> 100 µM	> 100 µM	> 100 µM	> 100 µM
CC(C)c1ccc2c(c1)CCC1[C@](C)(C(=O)OCC(O)CNc3cccc(Br)c3)CCC[C@]21C (stereo partly drawn) [Compound 3m, (1R,4aS)-2-Hydroxy-3-(3-Bromophenylamino)Propyl-7-Isopropyl-1,4a-Dimethyl-1,2,3,4,4a,9,10, 10a-Octahydrophenanthrene-1-Carboxylate]	16.5 ± 5.2 µM	23.2 ± 2.78 µM	30.3 ± 0.59 µM	19.6 ± 1.12 µM	> 100 µM
CC(C)c1ccc2c(c1)CCC1[C@](C)(C(=O)OCC(O)CNc3ccc(Br)cc3)CCC[C@]21C (stereo partly drawn) [Compound 3n, (1R,4aS)-2-Hydroxy-3-(4-Bromophenylamino)Propyl-7-Isopropyl-1,4a-Dimethyl-1,2,3,4,4a,9,10, 10a-Octahydrophenanthrene-1-Carboxylate]	9.91 ± 7 µM	17.9 ± 4.47 µM	19 ± 2.11 µM	19.1 ± 5.23 µM	> 100 µM
C#Cc1cccc(NCC(O)COC(=O)[C@]2(C)CCC[C@]3(C)c4ccc(C(C)C)cc4CCC23)c1 (stereo partly drawn) [Compound 3o, (1R,4aS)-2-Hydroxy-3-(3-Ethynylphenylamino)Propyl-7-Isopropyl-1,4a-Dimethyl-1,2,3,4,4a,9, 10,10a-Octahydrophenanthrene-1-Carboxylate]	13.4 ± 5.41 µM	20 ± 1.09 µM	23.1 ± 2.23 µM	22.3 ± 2.74 µM	> 100 µM
CC(C)c1ccc2c(c1)CCC1[C@](C)(C(=O)OCC3CN(c4ccccc4)C(=O)O3)CCC[C@]21C (stereo partly drawn) [Compound 4a, (1R,4aS)-(2-Oxo-3-Phenyloxazolidin-5-yl)Methyl-7-Isopropyl-1,4a-Dimethyl-1,2,3,4,4a,9,10,10a-Octahydrophenanthrene-1-Carboxylate]	11 ± 4.41 µM	9.69 ± 0.13 µM	> 100 µM	4.83 ± 0.77 µM	> 100 µM
Cc1ccccc1N1CC(COC(=O)[C@]2(C)CCC[C@]3(C)c4ccc(C(C)C)cc4CCC23)OC1=O (stereo partly drawn) [Compound 4b, (1R,4aS)-(3-(2-Methylphenyl)-2-Oxooxazolidin-5-yl)Methyl-7-Isopropyl-1,4a-Dimethyl-1,2,3,4,4a,9,10,10a-Octahydrophenanthrene-1-Carboxylate]	25 ± 5.02 µM	> 100 µM	> 100 µM	27.7 ± 5.03 µM	> 100 µM
Cc1cccc(N2CC(COC(=O)[C@]3(C)CCC[C@]4(C)c5ccc(C(C)C)cc5CCC34)OC2=O)c1 (stereo partly drawn) [Compound 4c, (1R,4aS)-(3-(3-Methylphenyl)-2-Oxooxazolidin-5-yl)Methyl-7-Isopropyl-1,4a-Dimethyl-1,2,3,4,4a,9,10,10a-Octahydrophenanthrene-1-Carboxylate]	10.5 ± 1.44 µM	31.96 ± 0.23 µM	> 100 µM	9.13 ± 2.77 µM	36.2 ± 2.68 µM
Cc1ccc(N2CC(COC(=O)[C@]3(C)CCC[C@]4(C)c5ccc(C(C)C)cc5CCC34)OC2=O)cc1 (stereo partly drawn) [Compound 4d, (1R,4aS)-(3-(4-Methylphenyl)-2-Oxooxazolidin-5-yl)Methyl-7-Isopropyl-1,4a-Dimethyl-1,2,3,4,4a,9,10,10a-Octahydrophenanthrene-1-Carboxylate]	5.97 ± 0.87 µM	21.1 ± 1.96 µM	19.7 ± 1.33 µM	2.91 ± 2.38 µM	30.6 ± 1.99 µM
COc1ccccc1N1CC(COC(=O)[C@]2(C)CCC[C@]3(C)c4ccc(C(C)C)cc4CCC23)OC1=O (stereo partly drawn) [Compound 4e, (1R,4aS)-(3-(2-Methoxyphenyl)-2-Oxooxazolidin-5-yl)Methyl-7-Isopropyl-1,4a-Dimethyl-1,2,3,4,4a,9,10,10a-Octahydrophenanthrene-1-Carboxylate]	13.2 ± 1.15 µM	20.5 ± 0.97 µM	> 100 µM	7.99 ± 6.35 µM	40.6 ± 1.96 µM
